Measurements: patent US11608367B2, “Peptides for angiogenic therapy” (The Regents of the University of California, priority 2018, dated 2023)

Key:
[1] = tested on: cancer, cardiac and neuronal cell lines; experiment: Categorisation of active ADPs as pro-/anti-apoptotic (Example 15); settings: criteria of Example 15
[2] = Effectiveness of ADPs (Example 1, Table 6; cell death assays of FIGS. 10-13); format: cell-based; settings: ADPs with N-terminal tumor penetrating peptide and C-terminal fluorescent tag; graded in words
Excerpt: FIGS. 10A-C show the sequences mapped, peptide blots, imaging to show expression and cell death assays for these three peptides. A) PPA-1 (PEPTIDE23) (SEQ ID NO:23), B) PPA4 (PEPTIDE19) (SEQ ID NO:19), C) PPA10 (PEPTIDE16 including FF at C-terminus) (SEQ ID NO:16).
FIGS. 11A-B show the sequences mapped, peptide blots, imaging to show expression and cell death assays for these HSP-70 peptides. A) PHA4 (PEPTIDE5) (SEQ ID NO:5), B) PHA5 (PEPTIDE13 plus C-terminal L) (SEQ IDS NO: 13).
FIGS. 12A-C show the sequences mapped, peptide blots, imaging to show expression and cell death assays for these p65 (RELA) peptides. A) PRA1 (PEPTIDE14) (SEQ ID NO:14), B) PRA8 (PEPTIDE8) (SEQ ID NO:8), C) PRA9 (SEQ ID Nos:33 and 37-45).
FIGS. 13A-D show the sequences mapped, peptide blots, imaging to show expression and cell death assays for these HSP-70 peptides. A) PAA1-1 (PEPTIDE11) (SEQ ID NO:11), B) PPA1-3 (PEPTIDE15) (SEQ ID NO:15), C) PAR1 (PEPTIDE19), D) Paint 1 (PEPTIDE7) (SEQ ID NO:7).
ADPs were first identified using Peptide SPOT analysis. Peptides were identified from AKIP1. PKAc, HSP-70 and p65 sequences. The identified ADPs were attached at the N-terminus to tumor penetrating peptide based on the CENDR rule (FIG. 9). A fluorescent tag was attached to the C-terminus for ease of visualization.
To test these ADPs, CRISPR based AKIP1 knock-out cell lines were generated in HEK 293 and glioblastoma cell lines. Further, all the isoforms of AKIP1 were reintroduced into the AKIP1 knock-out glioblastoma cell lines.

[3] = tested on: U87-MG cells; experiment: Caspase-Glo 3/7 apoptotic assay; format: cell-based, human; settings: cut-off value at 20 over scrambled control with P Value <0.05%
Experimental: Caspase-Glo® 3/7 assays (Promega) were performed according to the manufacturer's protocol. Briefly, 15,000-20,000 cells were seeded in a 96 well white flat bottom plate. The peptide constructs were transfected in triplicates using Lipofectamine 3000. Twenty four hour post-transfection, the cells were equilibrated at room temperature and Caspase-Glo® 3/7 reagent was dispensed into each well and the luminescent signal was measured 30-60 mins incubation at room temperature. The blank reaction was used to measure background luminescence associated with the cell culture system and Caspase-Glo® 3/7 Reagent alone. The value for the blank reaction was subtracted from experimental values to obtain the relative luminescence values (RLU). The percentage change over the Scrambled control was calculated from the mean as follows: [(Mean peptide RLU-Mean Scr RLU)/Scr RLU*100]. The P value was calculated using the Student t Test.
The efficacy of the 25 disclosed peptides to cause apoptosis in the U87-MG cells was measured using Caspase-Glo® 3/7 Assay. For each of the peptides, the percentage change over the scrambled control was tabulated and a cut-off value at 20 with a P Value of <0.05%.

[4] = tested on: cancer, cardiac and neuronal cell lines; experiment: Categorisation of active ADPs as pro-/anti-apoptotic (Example 15); settings: depending on cell type
Excerpt: 2) improved cell viability in cardiac or neuronal cell lines and decreased viability in at least 2 cancer cell lines.

DIGNGQRKDRKKTSLGPGGSYQISEHA [PEPTIDE5]
Pro-apoptotic (anti-angiogenic) category [1]: Pro-apoptotic (anti-angiogenic)
Effectiveness [2]: High

DNCLAAAALNGVDRRSLQRSAKLALEVLERAKRR [PAint]
Effectiveness [2]: Moderate

DNCLAAAALNGVDRRSLQRSARLALEVLERAKR [PEPTIDE12]
anti-apoptotic (pro-angiogenic) category [1]: anti-apoptotic (pro-angiogenic)

DWWALGVLIYEMAAGYPP [PEPTIDE17]
Pro-apoptotic (anti-angiogenic) category [1]: Pro-apoptotic (anti-angiogenic)

FTDLASVONSEFQQLLNQ (FTDLASVDNSEFQQLLNQ) [PEPTIDE24]
apoptosis in U87-MG cells (in words) [3]: very low apoptosis

GGSYQISEHAPEASQPAENISKDLYIEVYPGTYS [PEPTIDE7]
Pro-apoptotic (anti-angiogenic) category [1]: Pro-apoptotic (anti-angiogenic)
Effectiveness [2]: Low

IMQDKLEKERNDAKNAVEEYVYEMRDKLSGEYEKFVSEDDRNSFTLKLEDTENWL [PHA 5, PEPTIDE13 without the C-terminal Y]
Effectiveness [2]: High

IMQDKLEKERNDAKNAVEEYVYEMRDKLSGEYEKFVSEDDRNSFTLKLEDTENWLY [PEPTIDE13]
Pro-apoptotic (anti-angiogenic) category [1]: Pro-apoptotic (anti-angiogenic)

KYYSSVPEEGGATHVYRYHRGESKLHM [PEPTIDE9]
Pro-apoptotic (anti-angiogenic) category [1]: Pro-apoptotic (anti-angiogenic)
Effectiveness [2]: High

LNGVDRRSLQRSARLALEVLERAK [PEPTIDE11]
both pro and anti-apoptotic effect [4]: both pro and anti-apoptotic effect
Pro-apoptotic (anti-angiogenic) category [1]: Pro-apoptotic (anti-angiogenic)
anti-apoptotic (pro-angiogenic) category [1]: anti-apoptotic (pro-angiogenic)
Effectiveness [2]: High

PLIFPAEPAQASGPYVEIIEQPKQ [PEPTIDE14]
Pro-apoptotic (anti-angiogenic) category [1]: Pro-apoptotic (anti-angiogenic)
Effectiveness [2]: High

REERPPTLSASFRTMAEFMDYTSSQCG [PEPTIDE1]
Pro-apoptotic (anti-angiogenic) category [1]: Pro-apoptotic (anti-angiogenic)

RKDRKKTSLGPGGSYQISEHAPEASQP [PEPTIDE2]
Pro-apoptotic (anti-angiogenic) category [1]: Pro-apoptotic (anti-angiogenic)

RRAVDWHALERPKGCMGVLAREAPHLEKQPAAGPQRVLPGE [PEPTIDE3]
Pro-apoptotic (anti-angiogenic) category [1]: Pro-apoptotic (anti-angiogenic)

SHFSEHTALWDRSMKEFLAKAKEDFLKK [PEPTIDE10]
both pro and anti-apoptotic effect [4]: both pro and anti-apoptotic effect
Pro-apoptotic (anti-angiogenic) category [1]: Pro-apoptotic (anti-angiogenic)
anti-apoptotic (pro-angiogenic) category [1]: anti-apoptotic (pro-angiogenic)

STDPAVFTDLASVDNSEFQQLLNQG [PEPTIDE25]
apoptosis in U87-MG cells (in words) [3]: very low apoptosis

VKKRDLEQAISQRIQTNNN [PEPTIDE18]
Pro-apoptotic (anti-angiogenic) category [1]: Pro-apoptotic (anti-angiogenic)

VKKRDLEQAISQRIQTNNNPFQVPIEEQRGDYDLNAVR [PEPTIDE8]
both pro and anti-apoptotic effect [4]: both pro and anti-apoptotic effect
Pro-apoptotic (anti-angiogenic) category [1]: Pro-apoptotic (anti-angiogenic)
anti-apoptotic (pro-angiogenic) category [1]: anti-apoptotic (pro-angiogenic)
Effectiveness [2]: Moderate

VTVGSNDLTKKTHVVAVDSGQSVDLVFPV [PEPTIDE4]
both pro and anti-apoptotic effect [4]: both pro and anti-apoptotic effect
Pro-apoptotic (anti-angiogenic) category [1]: Pro-apoptotic (anti-angiogenic)
anti-apoptotic (pro-angiogenic) category [1]: anti-apoptotic (pro-angiogenic)
